Counter-ions that a name gives are not always drawn.
Assays:
[1] = [11C]MPC-6827 brain microPET/CT at baseline and after EpoD treatment; type: in vivo; settings: female Balb/C mice, EpoD 3.0 mg/kg intraperitoneal, 3 days acute treatment
Method: To validate the in vitro MT-stabilization cell uptake results, normal Balb/C mice (n = 6, 6 mo old) were treated with epothilone D (EpoD), a brain-penetrant, MT-stabilizing drug commonly used in tauopathies. [^11C]MPC-6827 brain PET/CT imaging was performed at baseline and after 3 days of acute treatment of EpoD treatment (3.0 mg/kg intraperitoneal injection). Whole-brain SUVmax was calculated and compared between the baseline and post-drug treatment scans.

[2] = system: stabilized/bound and destabilized/free tubulins of SH-SY5Y cells; assay: Cytoskeleton kit-based tubulin assay with [11C]MPC-6827 (free vs bound tubulin fractions); type: cell-based, human; settings: for decrease of [11C]MPC-6827 radioactivity in bound tubulin fractions / decrease of [11C]MPC-6827 radioactivity in free tubulin fractions / increase of [11C]MPC-6827 radioactivity in bound fractions / increase of [11C]MPC-6827 radioactivity in free tubulin fractions: 1.0 µM agent 3 h, vs untreated fractions
Method: To further investigate the tubulin selectivity of [^11C]MPC-6827 in SH-SY5Y cells, tubulin assay was performed using the commercially available kit-based assay (Cytoskeleton Inc, USA). Briefly, SH-SY5Y cells (7 × 10^6 cells/well) were pretreated with 1.0 µM of same MT stabilizing (EpoD, paclitaxel) and destabilizing agents (mertasine, vinblastine) for 3 h (n = 3/group). […] Samples were loaded on to ultra-centrifuge following the kit-based assay parameters to separate stabilized/bound and destabilized/free tubulins. Stabilized tubulins from low-speed centrifugation (1000×g for 5 min at 37 °C) and destabilized tubulins from high speed centrifugation (100,000×g for 20 min at 37 °C) were collected separately and their associated radioactivity was measured using a γ counter (Perkin Elmer).

SH-SY5Y cells = assay: In vitro [11C]MPC-6827 cell uptake assay with MT stabilizing/destabilizing agents and self-blocking
Method: Cell-binding assays in vitro were performed in SH-SY5Y cells with [^11C]MPC-6827 following our published protocols [20, 21]. […] They (0.5 × 10^6 cells/well) were treated with 1.0 µM of (a) stabilizing agents that increase MT polymerizations (paclitaxel, EpoD) [1, 25] or destabilizing agents increasing free tubulin content (vinblastine, mertasine) [26, 27] and 3 h later, [^11C]MPC-6827 (0.074 MBq/well) was added and incubated for 30 min at RT (n = 6/group). […] All the cells were washed with PBS and lysed with 1 N NaOH. Finally, the lysate from each well was γ-counted (PerkinElmer, Waltham, MA, USA) and counts-per-minute (cpm) values were normalized to the amount of radioactivity added to each well. Protein concentration was estimated in a subgroup of cells (n = 3) using the established Pierce BCA Protein Assay Kit from ThermoFisher [28, 29]. Cpm values were then matched to protein concentration per well, and the data expressed as %ID/mg of protein in each well.

[3] = Post-PET ex vivo biodistribution of [11C]MPC-6827 in tau KO and WT mice
Method: Post-PET radiotracer tissue biodistribution studies were performed with [^11C]MPC-6827 in the KO and WT mice (n = 4/group). After dynamic brain imaging from 0 to 60 min, mice were euthanized, and samples of brain, blood, heart, lung, liver, spleen, pancreas, kidney, and muscle were harvested, weighed, and γ-counted using a Wallac Gamma Counter (PerkinElmer) with a standard dilution of the injectate. […]

[4] = In vitro autoradiography of [11C]MPC-6827 on brain sections; type: binding, mice
Method: Autoradiography studies in vitro were performed on postmortem frozen brain sections from tau KO and control mice (n = 6/group) following published protocols. Briefly, the sagittal sections were mount on a glass slides (Super frost plus slides, Fisher Scientific, Waltham, MA), air-dried for 30 min and incubated in PBS (pH 7.4) for 10 min to remove any endogenous binding. Additionally, a sub-section of tau KO brains (n = 4) were self-blocked with non-radioactive MPC-6827 (10 µM) 1 h prior to radiotracer treatment. The slides were air-dried and ~ 0.5 MBq of [^11C]MPC-6827 in PBS was added to each slide and incubated for 30 min. The slides were then washed with PBS (3×) and water (1×) at 4 °C and quickly air-dried. Slides containing the brain tissues were exposed to radioluminographic imaging cassette BAS IP SR 2025 (GE Healthcare) for 12 h at − 20 °C and scanned with a GE Amersham Typhoon scanner (25 µm pixel size). Autoradiographs were analyzed using ImageQuant TL 8.2 and ROI were manually drawn (see Additional file 1: 3), and specific binding in each ROI was calculated and expressed as photo-stimulated luminescence signals per square millimeter (PSL/mm^2).

[5] = [11C]MPC-6827 microPET/CT brain imaging in tau KO and WT mice; type: in vivo
Method: Small animal microPET/CT imaging was performed in anesthetized tau-KO and WT mice (n = 8/group) at 6 months of age. All mice received a bolus injection of [^11C]MPC-6827 (18.1 ± 0.01 MBq) via the tail vein. For the microPET/CT scans, the head/brain area was centered in the field of view, and the list-mode data from the emission scans were reframed into a 0-60 min dynamic binning sequence. Time-activity curves (TACs) were obtained, and radioactive uptake was expressed as standardized uptake values (SUVs) using the PMOD analysis software. Regions of interest (ROIs) were drawn for the whole brain and commonly AD-affected regions including cortex, striatum, hippocampus, and cerebellum, using Π-pmod Atlas software.

[6] = design: method as in earlier work; settings: mice, rats, and dogs; cited from earlier work
β-tubulin = system: β-tubulin; design: method as in PMID 17575155; settings: high-affinity, selective β-tubulin binding MT agent; cited from earlier work
[7] = 1.0 µM agent for 3 h, then tracer 30 min at RT, vs untreated cells

C/C1=C/C[C@@H](/C(C)=C/c2csc(C)n2)OC(=O)C[C@H](O)C(C)(C)C(=O)[C@H](C)[C@@H](O)[C@@H](C)CCC1 [EpoD, Epothilone d]
lower [11C]MPC-6827 brain uptake (whole-brain SUVmax) with EpoD treatment compared to baseline [1]: ~ 23 (± 1) % | decrease of [11C]MPC-6827 radioactivity in bound tubulin fractions [2]: ~ 62 (± 6) % | decrease of [11C]MPC-6827 radioactivity in free tubulin fractions [2]: ~ 44 (± 1) % | decrease of [11C]MPC-6827 radioactive uptake (SH-SY5Y cells; [7]): ~ 44 (± 2) %

Cc1nc(N(C)c2ccc(O[11CH3])cc2)c2ccccc2n1 [[^11C]MPC-6827]
brain uptake ([3]; WT controls, brain): 1.03 ± 0.29 %ID/g | higher brain uptake in tau KO mice compared to WT controls ([3]; brain): ~ 41% | uptake in cortical regions ([3]; controls (WT), cortical regions): 0.69 ± 0.07 %ID/g | uptake in cortical regions of tau KO brains higher than in controls ([3]; cortical regions): 37% | brain uptake ([3]; tau KO mice, brain): 1.76 ± 0.31 %ID/g | uptake in cortical regions ([3]; tau KO mice, cortical regions): 1.11 ± 0.03 %ID/g | higher radioactivity in tau KO brains compared to age-matched controls, cortex ([4]; autoradiography in vitro, cortex): ~ 38[± 2] % | higher radioactivity in tau KO brains compared to age-matched controls, hippocampus ([4]; autoradiography in vitro, hippocampus): ~ 33[± 3] % | higher radioactivity in tau KO brains compared to age-matched controls, midbrain regions ([4]; autoradiography in vitro, midbrain regions): 30[± 3] % | higher radioactivity in tau KO brains compared to age-matched controls, whole brain ([4]; autoradiography in vitro, whole brain): ~ 46[± 4] % | increased radioactivity in destabilized/free tubulin fractions compared to bound fractions ([2]; tracer 30 min at RT): > 90 (± 4) % | whole-brain SUVmax ([5]; WT mice, 0-60 min microPET/CT, IV): 1.74 | time of peak brain radioactivity (TAC) ([5]; both genotypes (tau KO and WT)): around 4 min | whole-brain SUVmax ([5]; tau KO mice, 0-60 min microPET/CT, IV): 2.33 | whole-brain SUVmax in tau KO higher than in WT controls ([5]; tau KO vs WT mice, 0-60 min microPET/CT, IV): 33 (± 2) %

CC(=O)O[C@H]1C(=O)[C@@]2(C)[C@H]([C@H](OC(=O)c3ccccc3)[C@]3(O)C[C@H](OC(=O)[C@H](O)[C@@H](NC(=O)c4ccccc4)c4ccccc4)C(C)=C1C3(C)C)[C@]1(OC(C)=O)CO[C@@H]1C[C@@H]2O [paclitaxel]
decrease of [11C]MPC-6827 radioactivity in bound tubulin fractions [2]: ~ 60 (± 2) % | decrease of [11C]MPC-6827 radioactivity in free tubulin fractions [2]: ~ 36.8 (± 3) %

COc1cc2cc(c1Cl)N(C)C(=O)C[C@H](OC(=O)[C@H](C)N(C)C(=O)CCS)[C@]1(C)O[C@H]1[C@H](C)[C@@H]1C[C@@](O)(NC(=O)O1)[C@H](OC)/C=C/C=C(\C)C2 [mertasine]
increase of [11C]MPC-6827 radioactivity in bound fractions [2]: ~ 66 (± 2) % | increase of [11C]MPC-6827 radioactivity in free tubulin fractions [2]: ~ 39 (± 3) % | increase of [11C]MPC-6827 radioactive uptake (SH-SY5Y cells; [7]): 63 (± 2) %

COc1ccc(N(C)c2nc(C)nc3ccccc23)cc1 [MPC-6827, MPC-6827 hydrochloride]
lower radiotracer uptake on blocking compared to untreated tau KO samples ([4]; non-radioactive MPC-6827 10 µM 1 h prior to radiotracer, whole brain, cortex, hippocampus, mid-brain regions of tau KO sections): 63–70% | brain-to-plasma ratios [6]: 14–30 times | lower [11C]MPC-6827 radioactive uptake in self-blocking assay (SH-SY5Y cells; non-radioactive MPC-6827 1.0 µM 60 min before tracer, 30 min incubation): ~ 70 (± 1) % | IC50 (β-tubulin): 1.5 nM

CC[C@]1(O)C[C@@H]2CN(CCc3c([nH]c4ccccc34)[C@@](C(=O)OC)(c3cc4c(cc3OC)N(C)[C@H]3[C@@](O)(C(=O)OC)[C@H](OC(C)=O)[C@]5(CC)C=CCN6CC[C@]43[C@@H]65)C2)C1 [vinblastine]
increase of [11C]MPC-6827 radioactivity in bound fractions [2]: 84 (± 4) % | increase of [11C]MPC-6827 radioactivity in free tubulin fractions [2]: ~ 43 (± 1) % | increase of [11C]MPC-6827 radioactive uptake (SH-SY5Y cells; [7]): ~ 78 (± 2) %

Reference: article PMC9325934, “Preliminary mechanistic insights of a brain-penetrant microtubule imaging PET ligand in a tau-knockout mouse model” (EJNMMI Research, 2022)
